Experimental findings from patent US9605002B2, “5,5-heteroaromatic anti-infective compounds” (priority 2012, dated 2017) are described below.

Experiment in all cases: MIC against clinical Mtb strains
Common to all, as to type: cell-based
Holding throughout (conditions): Mycobacterium tuberculosis

Assay [1] has as its system MDR-TB resistant to HREKP.
Assay [2] has as its system XDR-TB resistant to HRESKO.
The subject of assay [3] is MDR-TB resistant to HREZSKP.
In assay [4] the test system is MDR-TB resistant to HRERb.
The test system of assay [5] is XDR-TB resistant to HREKO.

Where “and” joins values, the source holds several entries; their conditions need not be identical. Identical values can stand only once. Where only a bound is given, the exact number is not on record here.

Usually MIC90 stands for an inhibitory concentration at the 90% level, which refers to growth in some studies and to a panel of isolates in others. With `Cc1cn2c(C(=O)NCc3ccc(Oc4ccc(F)cc4)cc3)c(C)nc2s1` [ND-010081], the MIC90 in assay [1] was < 0.01 µM and < 0.025 µg/mL; in assay [2], < 0.01 µM and < 0.025 µg/mL; in assay [3], 0.02 µM to 10 µM and 0.05 µg/mL to 25 µg/mL; in assay [4], 0.63 µM and 1.6 µg/mL; in assay [5], < 0.01 µM and < 0.025 µg/mL.

Regarding `O=[N+]([O-])c1cn2c(n1)OC[C@@H](OCc1ccc(OC(F)(F)F)cc1)C2` [PA-824, reference compound], the MIC90 was 0.45 µM to 0.86 µM and 0.16 µg/mL to 0.31 µg/mL in assay [1]; 0.86 µM and 0.31 µg/mL in assay [2]; 0.45 µM to 0.86 µM and 0.16 µg/mL to 0.31 µg/mL in assay [3]; 0.45 µM to 0.86 µM and 0.16 µg/mL to 0.31 µg/mL in assay [4]; 0.22 µM and 0.08 µg/mL in assay [5].
